Assay results from PMC8162438, “Cancer cell-selective modulation of mitochondrial respiration and metabolism by potent organogold(III) dithiocarbamates” (Chemical Science, 2020).

System: MDA-MB-231
Assay: Intracellular ROS analysis with DCF-DA (FACS)
Assay type: cell-based
Conditions: for Increase in ROS versus DMSO: 1 hour, DCF-DA
Text: We examined the status of intracellular ROS induced by 2a. For this experiment, we employed the used 2′,7′-dichlorofluoresceindiacetate (DCF-DA),[103] a fluorogenic dye with an excitation/emission wavelength of 495/525 nm. DCF-DA enters into the cell and is subsequently deacetylated by cellular esterases where it is then oxidized by ROS to produce a fluorescent compound that can detected with flow cytometry (FACS) using the FITC channel.[104]
To quantify the amount of ROS produced, we subjected MDA-MB-231 cells to 2a at 10 and 20 μM to assess concentration dependence. Within 1 hour of treatment, we observed a 1.3× increase in ROS in cells treated with 2aversus DMSO (Fig. 11). At twice the concentration, 20 μM, we observed a 1.5× increase in ROS. […] When compared to the H2O2 control, 2a produces similar ROS levels in MDA-MB-231 cells (Fig. 11). […] To further solidify that the DCF-DA fluorescence is from ROS and not other reactive species such as RNS, we pre-treated cells with 10 mM N-acetyl cysteine for 2 h. NAC is a natural ROS scavenger and a key component in the formation of glutathione (GSH), which is a powerful antioxidant.[105,106] After pre-treatment, the cells were subjected to the same concentration of 2a (10 μM) for 1 h.
100 µL of dye into 900 µL of DMEM. Note: the working solution of JC-1 should always be prepared fresh and not stored for long-term use. Then, 100 µL/mL of DMEM were added to the cells and incubated at 37 °C for 20 minutes. Prior to imaging, the media was removed and replaced with room temperature PBS (2 mL). The cells were then visualized using confocal microscopy on a Nikon A1R Inverted Confocal Microscope. […]
For the wells that were pre-treated with NAC, a stock solution of NAC in DMEM was added at a concentration of 10 mM for 2 h prior to the addition of 2a. […] The cells were then analyzed using FACS with the FITC channel […]
Mitochondrial Metabolism Analysis with Seahorse XF96 Analysis. […] The optimum conditions were determined to be 30,000 cells/well and an FCCP injection concentration of 0.6 µM. […]

Compound: C[N+](C)=C1[S][Au-2]2([S]1)[c]1ccccc1Cc1cccc[n+]12.F[P-](F)(F)(F)(F)F (stereo not drawn) [2a]
- Increase in ROS versus DMSO (MDA-MB-231, 10 μM): 1.3 ×
- Increase in ROS versus DMSO (MDA-MB-231, 20 μM): 1.5 ×
- ROS levels after NAC pre-treatment (MDA-MB-231, 10 mM NAC 2 h, then 10 μM for 1 h): no increase in ROS levels
